One compound from patent US20040076968A1, “Method for detecting pre-disposition to hepatotoxicity” (priority 2000, published 2004) can be followed below.

This series relates to UGT1A gene 3′UTR (exon 5). Kind of series: Association of the UGT1A 3′UTR polymorphism with liver function abnormality in tolcapone-treated patients (case-control genotyping). The conditions noted are these: UGT1A-3′_908. The class given is in vivo, human. Here is the method:
Disease severity had already been controlled for by the original study inclusion criteria.
In the KTC format, the generation of double-stranded amplification product is monitored using a DNA intercalating dye and a thermal cycler which has a fluorescence-detecting CCD camera attached (PE-Bipsystems GeneAmp 5700 Sequence Detection System). Fluorescence in each well of the PCR amplification plate is measured at each cycle of annealing and denaturation. The cycle at which the relative fluorescence reached a threshold of 0.5 using the SDS sofiware from PE-Biosystems was defined as the Ct.
The amplification reactions were designed to be allele-specific, so that the amplification reaction was positive if the polymorphism was present and the amplification reaction was negative if the polymorphism was absent. For each bi-allelic polymorphism, one well of the amplification plate was set up to be specific for allele 1 and a second well was set up to be specific for allele 2. For each polymorphism to be detected, three primers were designed—two allele-specific primers and one common primer (Table 3). Reactions for allele 1 contained allele 1-specific primer and the common primer and reactions for allele 2 contained allele 2-specific primer and the common primer.
The Ct of each amplification reaction was determined and the difference between the Ct for allele 1 and allele 2 (delta Ct) was, used as the assay result. Samples with delta Cts between −3.0 and 3.0 were considered heterozygous (A1/A2). Samples with delta Cts below −3.0 were considered homozygous for A1 (A1/A1); samples with delta Cts above 3.0 were considered homozygous for A2 (A2/A2).
The patient samples were divided into two groups.
For each genotype, the following analyses were performed:
a) Analysis of the entire genotype: patients were classified according to the following three categories: homozygous 1/1 (two copies of allele 1 and no copies of allele 2), heterozygous 1/2 (one copy of allele 1 and one copy of allele 2) or homozygous 2/2 (no copies of allele 1 and two copies of allele 2). Analysis was conducted to assess whether there were differences in the proportion of case patients in each of these groups, compared with the proportion of control patients. The Cochran-Maentel-Hanszel (CMH) test was applied to the data presented in a 2-by-3 table (the two columns indicating presence or absence of liver function abnormality and the three rows indicating the three categories of the genotype).
b) Analysis of alleles: the presence of allele 1 or 2 in case patients was compared to the presence of the respective allele in the control patients.
c) Analysis of allele counts: this analysis was conducted to compare the distribution of the alleles in patients with liver function abnormality to that of patients without abnormality. The total number of copies of allele 1 among patients with liver function abnormality was compared with the total number of copies of allele 2 among these case patients. The CMH test was applied to the data using a 2-by-2 table (the two columns indicating presence or absence of liver function abnormality and the two rows indicating the two allele counts).
All markers showing significant association to elevated liver transaminases corresponded to SNPs in the UGT1 genes.

SMILES strings stand for the structures.

Turning to `Cc1ccc(C(=O)c2cc(O)c(O)c([N+](=O)[O-])c2)cc1` [tolcapone], the “n (%) of patients” value (Allele C Absent, Liver Function Abnormality Absent) is recorded as 14 (5.1%); the “n (%) of patients” value (Allele C Absent, Liver Function Abnormality Present) was 4 (3.0%); the “n (%) of patients” value (Allele C Present, Liver Function Abnormality Absent) is listed as 260 (94.9%); the “n (%) of patients” value (Allele C Present, Liver Function Abnormality Present) was 131 (97.0%); the “n (%) of patients” value (Allele G Absent, Liver Function Abnormality Absent) is recorded as 163 (59.5%); the “n (%) of patients” value (Allele G Absent, Liver Function Abnormality Present) is reported as 101 (74.8%). Moreover, the “n (%) of patients” value (Allele G Present, Liver Function Abnormality Absent) is reported as 111 (40.5%); the “n (%) of patients” value (Allele G Present, Liver Function Abnormality Present) was 34 (25.2%); the “n (%) of patients” value (Genotype Heterozygous G/C, Liver Function Abnormality Absent) was 97 (35.4%); the “n (%) of patients” value (Genotype Heterozygous G/C, Liver Function Abnormality Present) is listed as 30 (22.2%); the “n (%) of patients” value (Genotype Homozygous C/C, Liver Function Abnormality Absent) was 163 (59.5%); the “n (%) of patients” value (Genotype Homozygous C/C, Liver Function Abnormality Present) is given as 101 (74.8%). Also, the “n (%) of patients” value is given as 14 (5.1%) (Genotype Homozygous G/G, Liver Function Abnormality Absent) and 4 (3.0%) (Genotype Homozygous G/G, Liver Function Abnormality Present). Further, the “n (%) of allele copies” value is reported as 423 (77.2%) (Count Allele C, Liver Function Abnormality Absent); 232 (85.9%) (Count Allele C, Liver Function Abnormality Present); 125 (22.8%) (Count Allele G, Liver Function Abnormality Absent); 38 (14.1%) (Count Allele G, Liver Function Abnormality Present).
